According to publication PMC5039424 (2016):

system: yeast tRNA^Phe (RNA, tRNA) GCGGAUUUAGCUCAGUUGGGAGAGCGCCAGACUGAAGAUCUGGAGGUCCUGUGUUCGAUCCACAGAAUUCGCACCA; assay: inhibition of lead(II)-induced cleavage, gel; settings: 10 mM Mg2+, 1 mM NH4+, 0.5 mM Pb2+; 50% inhibition of Pb2+ cleavage; 50 mM Tris-HCl pH 7.5; RNA 2.4 μM

| Ki [µM] | Compound |
| --- | --- |
| 166 ± 42 | CN(C)c1ccc2cc3ccc(N(C)C)cc3[o+]c2c1 |
| 98 ± 20 | CN(C)c1ccc2nc3ccc(N(C)C)cc3[s+]c2c1 |
| 52 ± 8.3 | CN(C)c1ccc2nc3ccc(N)cc3[s+]c2c1 |
| 58 ± 28 | CNc1ccc2nc3ccc(=[N+](C)C)cc-3sc2c1 |
